{"source": "patent EP3797781A1", "about": "“USE OF EC-7072 AND SYNERGIC COMPOSITIONS THEREOF IN TREATMENT OF CHRONIC LYMPHOCYTIC LEUKEMIA” (priority 2019, dated 2021)", "test_system": "T cells isolated from patients with CLL", "experiment": "T cell apoptosis by Annexin V/PI staining", "assay_type": "cell-based, human", "conditions": "200 nM, 24 hours; n = 3", "method": "Cell viability and apoptosis were evaluated by double-staining with the mitochondrial inner transmembrane potential (ΔΨm)-sensitive dye DiOC6(3) (3,3'-dihexyloxacarbocyanine iodide; Sigma-Aldrich) and the exclusion dye propidium iodide (PI; Immunostep), allowing identification of apoptotic [DiOC6(3)^low PI^-] and dead [PI^+] cells as per Proc. Natl. Acad. Sci. U.S.A. (2014) 111(8):3020-3025 and Methods Mol. Biol. (2016) 1419:1-16. Briefly, PBMCs were resuspended in culture medium containing 20 nM DiOC6(3) and incubated for 30 minutes at 37 °C. Then, PI (1 µg/mL) was added and cells were further incubated for 10 minutes at room temperature (RT). Cells were analyzed by flow cytometry considering DiOC6(3)^+PI^- cells as viable. In some experiments, apoptosis was evaluated by staining with Annexin V/PI. […]\nThe induction of caspase-dependent apoptosis on primary CLL cells by EC-7072 was assessed by: • (i) incubating PBMCs isolated from patients with CLL (n = 6) following treatment with increasing concentrations of EC-7072 (0 - 400 nM) for 24 hours. Apoptosis of leukemia cells was evaluated by cytofluorometric assessment of Annexin V/PI staining to obtain percentages of apoptotic [Annexin V^+ PI^-] and dead [PI^+] cells (Figure 3A); • (ii) incubating PBMCs and T cells isolated from patients with CLL (n = 3) following treatment with EC-7072 (200 nM) for 24 hours. […]", "data": [{"smiles": "CO[C@@H]([C@@H]1Cc2cc3cc(O[C@H]4C[C@@H](O[C@H]5C[C@@H](O)[C@H](O)[C@@H](C)O5)[C@H](O)[C@@H](C)O4)c(C)c(O)c3c(O)c2C(=O)[C@H]1O[C@H]1C[C@@H](O[C@H]2C[C@@H](O[C@H]3C[C@](C)(O)[C@H](O)[C@@H](C)O3)[C@@H](O)[C@@H](C)O2)[C@H](O)[C@@H](C)O1)[C@@H](O)C(C)=O", "note": "[EC-7072, mithramycin SK]", "values": [{"measurement": "T cell apoptosis (Annexin V/PI)", "value": "no significant apoptosis"}]}]}
